Legend:
[1] = test system: SW480; assay: Sulforhodamine B cytotoxicity assay, SW480; type: cell-based, human; details: 48 h; for IC50: mean ± SE
Procedure: (§1) Two colon cancer cells (SW480 and SW620) and non-malignant cell lines (human keratinocytes, HaCaT; chinese hamster ovary, CHO-K1) were obtained from The European Collection of Authenticated Cell Cultures (ECACC, England). For biological evaluations, cells were cultured in Dulbecco’s Modified Eagle Medium, supplemented with 10% heat-inactivated (56 °C) horse serum, 1% penicillin/streptomycin and 1% non-essential amino acids (Gibco Invitrogen, Carlsbad, CA, USA). During the treatments, the serum was reduced to 3%, and the medium was supplemented with insulin ([…]) transferrin ([…]) and selenium (5 ng/mL) (ITS-defined medium; Gibco, Invitrogen, Carlsbad, USA). To avoid Mycoplasma spp. contamination, cell cultures were regularly tested by polymerase chain reaction.
(§2) Briefly, cells were seeded at 20,000 cells/well (for cytotoxicity assay) and 2500 cells/well (for the antiproliferative test) in 96-well tissue culture plates, incubating at 37 °C in a humidified atmosphere with 5% CO2. After the adaptation time (24 h), cells were treated with increasing concentrations of the hybrid molecules or DMSO (1%). At the end of each treatment, cells were fixed with trichloroacetic acid (50% v/v; MERCK) for one hour at 4 °C. Subsequently, cell proteins were stained with SRB (0.4% w/v; Sigma-Aldrich, United States) and washed with acetic acid (1%). After drying at room temperature, Tris-base (10 mM) was added to solubilize protein bound stain. Absorbance was read in a microplate reader (Mindray MR-96A) at 492 nm. All experiments were performed at least in duplicate.

[2] = test system: SW620; assay: Sulforhodamine B cytotoxicity assay, SW620; type: cell-based, human; details: 48 h; for IC50: mean ± SE
Procedure: as §1, §2

[3] = test system: HaCaT; assay: Sulforhodamine B cytotoxicity assay, HaCaT; type: cell-based, human; details: 48 h, mean ± SE, non-malignant cells
Procedure: as §1, §2

[4] = test system: CHO-K1; assay: Sulforhodamine B cytotoxicity assay, CHO-K1; type: cell-based, chinese hamster; details: 48 h, mean ± SE, non-malignant cells
Procedure: as §1, §2

[5] = test system: SW620; assay: Antiproliferative activity (sulforhodamine B), SW620; type: cell-based, human; details: dose- and time-dependent, from day 2 above 12.5 µM, from day 4 at 6.25 µM
Procedure: as §2

[6] = test system: SW620 cells; assay: Cell cycle distribution (PI, flow cytometry), SW620; type: cell-based, human; details: 48 h, IC50 concentration, versus DMSO control
Procedure: (§3) Cell cycle analysis was evaluated by flow cytometry using propidium iodide (PI). This experiment was carried out as previously described by Nicoletti et al. (1991). Then, 48 h after treatment with the IC50 value of the hybrids 4a, 4g and DMSO (1%) as a vehicle control, cells were collected by scraping and centrifugation, resuspending the cell pellet in a versene buffer. Thereafter, cells were fixed with 1.8 mL cold ethanol (70%) at 4 °C overnight. Alcohol was removed by subsequent washing twice with versene buffer. The final pellet was resuspended in 300 µL of PBS with 0.25 mg/mL RNAse (Type I-A, Sigma-Aldrich, Germany) and 0.1 mg/mL PI and incubated for 30 min in the dark at room temperature. FACS Canto II flow cytometer (BD Biosciences, USA) was used to read the PI fluorescence of 10,000 events. The analysis of data was performed with the software FlowJo 7.6.2 (Ashland, OR, USA).

[7] = test system: SW620 cells; assay: Mitochondrial membrane potential and plasma membrane integrity (DiOC6/PI), SW620; type: cell-based, human; details: 48 h, IC50 concentration
Procedure: (§4) The fluorescent dyes DiOC6 (3,3′-dihexyloxacarbocyanine iodide, Thermo Fisher Scientific, Waltham, MA, USA) and propidium iodide (PI) were used to evaluate possible changes in mitochondrial membrane potential induced by the hybrid molecules. Then, 2.5 × 10^5 cells/well were seeded in 6-well tissue culture plates and allowed to grow for 24 h. Then, these were treated with hybrids 4a and 4g (with the IC50 value for each compound). Cells were harvested by scrapping 48 h after treatment, stained with DiOC6 and propidium iodide (PI) at room temperature for 30 min in darkness. Flow cytometric analysis of 10,000 events was carried out to quantify cells with mitochondrial depolarization, excitation at 488 nm and detection of the emission with the green (530/15 nm) and the red (610/20 nm) filters.

[8] = test system: SW620 cells
Procedure: (§6) SW480 and SW620 cells were treated for 48 h and further collected by scraping. After centrifugation, the cell pellet was resuspended in Annexin V/FITC–PI and incubated in darkness for 20 min. Data were obtained through flow cytometry and analyzed with FlowJo 7.6.2 (Ashland, OR, USA). […] Cells with positive staining for PI were considered dead cells, late apoptotic cells, necroptotic cells or secondary necrotic cells. All assays were repeated twice [56].

[9] = test system: SW620 cells; assay: Cell death induction (Annexin V/FITC and PI), SW620; details: 48 h
Procedure: as §6

[10] = test system: SW480; assay: Antiproliferative activity (sulforhodamine B), SW480; type: cell-based, human; details: dose- and time-dependent, from day 2 above 12.5 µM, from day 4 at 6.25 µM
Procedure: as §2

[11] = test system: SW480 cells; assay: Cell cycle distribution (PI, flow cytometry), SW480; type: cell-based, human; details: 48 h, IC50 concentration
Procedure: as §3

[12] = test system: SW480 cells; assay: Mitochondrial membrane potential and plasma membrane integrity (DiOC6/PI), SW480; type: cell-based, human; details: 48 h, IC50 concentration
Procedure: as §4

[13] = test system: SW480 cells; assay: Cell death induction (Annexin V/FITC and PI), SW480; type: cell-based, human; details: 48 h
From the text: All assays were repeated twice.

[14] = test system: caspase-3; assay: Apoptotic biomarker ELISA, caspase-3 in SW620 cells; type: cell-based, human; details: 48 h, IC50 concentration, versus DMSO control
From the text: (§5) Afterwards, cells were scraped and lysed with Cell Lysis Buffer (1X, Ref. #9803). The supernatant was used for the determination of apoptotic biomarkers after the treatment with the hybrid molecules. Enzyme-linked immunosorbent assay (ELISA) kits were provided by Elabscience Biotechnology Co., (Wuhan, Hubei, China) (caspase-8) and Cell-Signaling Technology (Danvers, MA, USA) (caspase-3 and p53), following the manufacturer’s instructions.

[15] = test system: caspase 8; assay: Apoptotic biomarker ELISA, caspase 8 in SW620 cells; type: cell-based, human; details: 48 h, IC50 concentration, versus DMSO control
From the text: as §5

[16] = test system: tumor suppressor protein p53; assay: Apoptotic biomarker ELISA, p53 in SW620 cells; type: cell-based, human; details: 48 h, IC50 concentration, versus DMSO control
From the text: as §5

[17] = test system: Hep-G2; details: cited from earlier work
[18] = test system: RD; details: cited from earlier work
[19] = test system: LU-1; details: cited from earlier work
[20] = test system: FL; details: cited from earlier work
[21] = test system: normal VERO cells; details: cited from earlier work
[22] = test system: MCF-7; design: method as in PMID 21389782; details: ER-positive breast cancer cell line; cited from earlier work
[23] = test system: 21PT; design: method as in PMID 21389782; details: ER-positive breast cancer cell line; cited from earlier work
[24] = test system: T47D; design: method as in PMID 21389782; details: ER-positive breast cancer cell line; cited from earlier work
[25] = test system: SW480 cells; design: method as in earlier work; details: 48 h post-treatment with 300 µM; cited from earlier work

Compound: 5-fluoro-1-((1-(3-((5-hydroxy-3-(4-hydroxyphenyl)-4-oxo-4H-chromen-7-yl)oxy)nonyl)-1H-1,2,3-triazol-4-yl)methyl)pyrimidine-2,4(1H,3H)-dione [4g]
- IC50 [1]: > 100 µM
- Selectivity Index (SI) CHO-K1/620 [2]: >2.71
- Selectivity Index (SI) HaCaT/SW620 [2]: >2.71
- IC50 [2]: 36.8 ± 0.71 µM
- IC50 [3]: > 100 µM
- IC50 [4]: > 100 µM
- Antiproliferative activity (cell viability) [5]: significant decrease in the percentages of cell viability
- Effect on cell cycle distribution [6]: important decrease in the population of cells in S-phase with a slight increase in G0/G1
- Change in mitochondrial membrane potential [7]: do not induce significant changes in mitochondrial membrane potential
- Q3 (viable cells per legend) [8]: 0,00%
- Plasma membrane integrity / cell death [9]: caused a loss in membrane integrity

Compound: O=c1[nH]c(=O)n(Cc2cn(CCOc3cc(O)c4c(=O)c(-c5ccc(O)cc5)coc4c3)nn2)cc1F [4a, 5-fluoro-1-((1-(3-((5-hydroxy-3-(4-hydroxyphenyl)-4-oxo-4H-chromen-7-yl)oxy)ethyl)-1H-1,2,3-triazol-4-yl)methyl)pyrimidine-2,4(1H,3H)-dione]
- Selectivity Index (SI) CHO-K1/SW480 [1]: 1.13
- Selectivity Index (SI) HaCaT/SW480 [1]: 1.03
- IC50 ([1]; Homo sapiens, SW480): 62.7 ± 7.26 µM
- Selectivity Index (SI) CHO-K1/620 [2]: 1.41
- Selectivity Index (SI) HaCaT/SW620 [2]: 1.28
- IC50 ([2]; Homo sapiens, SW-620): 50.6 ± 1.33 µM
- IC50 ([3]; Homo sapiens, HaCaT): 64.6 ± 1.07 µM
- IC50 ([4]; Cricetulus griseus, CHO-K1): 71.1 ± 10.5 µM
- Antiproliferative activity (cell viability) [10]: significant decrease in the percentages of cell viability
- Antiproliferative activity (cell viability) [5]: significant decrease in the percentages of cell viability
- Cell cycle distribution G0/G1 ([11]; representative histogram): 46.4%
- Cell cycle distribution G2/M ([11]; representative histogram): 15.4%
- Cell cycle distribution S-phase ([11]; representative histogram): 36.4%
- Cell cycle distribution Sub G0/G1 ([11]; representative histogram): 1.8%
- Effect on cell cycle distribution ([11]; versus DMSO control): important decrease in the population of G0/G1 after treatment with hybrid 4a, with a consequent increase in S-phase and G2/M
- Effect on cell cycle distribution [6]: important decrease in the population of cells in S-phase with a slight increase in G0/G1
- Change in mitochondrial membrane potential [12]: do not induce significant changes in mitochondrial membrane potential
- Change in mitochondrial membrane potential [7]: do not induce significant changes in mitochondrial membrane potential
- Plasma membrane integrity / cell death [13]: caused a loss in membrane integrity
- Protein levels of caspase-3 [14]: significant increase in the active form of caspase-3
- Protein levels of caspase 8 [15]: significant increase in the levels of caspase 8
- Protein levels of tumor suppressor protein Tp53 [16]: important changes in the levels of the tumor suppressor protein Tp53
- Plasma membrane integrity / cell death [9]: caused a loss in membrane integrity

Compound: CC(C)c1ccc(/C=C/C(=O)c2cc(Cn3cc(F)c(=O)[nH]c3=O)ccc2O)cc1 [B]
- IC50 [17]: 4.68 µM
- IC50 [18]: 10.8 µM
- IC50 [19]: 11.9 µM
- IC50 [20]: 8.17 µM
- IC50 [21]: 15 µM

Compound: O=c1c(-c2ccc(OCCn3cc(-c4ccccc4)nn3)cc2)coc2cc(OCCn3cc(-c4ccccc4)nn3)cc(O)c12 [E]
- IC50 [22]: 0.8 µM
- IC50 [23]: 0.9 µM
- IC50 [24]: 0.9 µM

Compound: CC(=O)Oc1ccccc1C(=O)OCCn1cc(COc2cc(O)c3c(=O)c(-c4ccc(O)cc4)coc3c2)nn1 [F]
- reduction in cell viability [25]: 40.49%
